This is an account of results in PubChem BioAssay (NCI).

Holding throughout (assay): DTP human tumour cell line panel, 48 h
Assay [1] deals with MDA-MB-435.
Assay [2] relates to LOX IMVI melanoma.
Assay [3] deals with OVCAR-5 ovarian.
Assay [4] deals with A498 renal.
Assay [5] has as its system SN12C renal.
Assay [6] deals with NCI-H226 lung.
The test system of assay [7] is SNB-19 CNS.
Assay [8] deals with SNB-75 CNS.
Assay [9] deals with KM12 colon.
Assay [10] has as its system U251 CNS.
The subject of assay [11] is RPMI-8226 leukemia.
In assay [12] the test system is SW-620 colon.
The subject of assay [13] is K-562 leukemia.
Assay [14] concerns TK-10 renal.
Assay [15] relates to NCI-H23 lung.
The subject of assay [16] is HL-60(TB) leukemia.
Assay [17] has as its system MOLT-4 leukemia.
The test system of assay [18] is HS 578T breast.
Assay [19] has as its system OVCAR-3 ovarian.
For assay [20], the system named is PC-3 prostate.

Structures are written as SMILES.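 Each compound was tested at five concentrations against cells in 96-well plates for 48 hours. TGI is the concentration that stops growth completely.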 Where only a bound is given, the exact number is not on record here.

For the molecule `O=C(c1ccccc1)N(CCCCNC(=O)C(F)(F)F)CCCNC(=O)C(F)(F)F`, the TGI in assay [1], in assay [2], in assay [3], in assay [4], in [5] and in assay [6] was more than 100 µM in each case. Moreover, the TGI in [7], in [8], in [9], in assay [10], in assay [11] and in assay [12] was more than 100 µM in each case. The TGI in assay [13], in assay [14], in assay [15], in [16], in assay [17] and in [18] was more than 100 µM in each case.
For the molecule `CSc1nc(NC2OCC(OC(C)=O)C(OC(C)=O)C2OC(C)=O)c2c(n1)OCC2=O` (stereo unspecified), the TGI in assay [2], in assay [3], in assay [4], in assay [5], in [6] and in assay [7] was more than 100 µM throughout. For the same molecule, the TGI in [8], in [9], in [10], in assay [11], in assay [12] and in assay [13] was more than 100 µM throughout. The TGI in [14], in assay [19], in assay [15], in assay [16] and in assay [17] was more than 100 µM throughout.
As for `COc1ccccc1/C=N/Nc1nnc2c3ccccc3c3ncccc3c2n1`, the TGI in assay [1] was more than 100 µM; in assay [2], more than 100 µM; in assay [3] it was more than 100 µM; in assay [5] it was more than 100 µM; in [7], more than 100 µM; in assay [8] it was 49.3 µM. The TGI in assay [9], in assay [10], in assay [11], in assay [12], in assay [13] and in assay [14] was more than 100 µM throughout. Besides, the TGI in [20], in assay [19], in assay [15], in assay [16], in assay [17] and in assay [18] was more than 100 µM each time.
`CN(C)/C=C/c1c2c(nc3ccccc13)C(=O)c1cccnc1C2=O`: the TGI in [1] was determined as 1.56 µM; in assay [3], 3.95 µM; in [4], 2.31 µM; in [5] it was 2.57 µM; in [7] it was 1.95 µM; in assay [8], 4.66 µM. The TGI in [9] is 1.56 µM; in [10], 5.9 µM; in [11], 6.27 µM; in [12] it was 1.48 µM; in [13], 3.75 µM; in [14], 4.03 µM. Moreover, the TGI in [20] amounted to 11.1 µM; in assay [19], 1.09 µM; in assay [15] it was 0.42 µM; in [16] it was 2.53 µM; in assay [17], 6.98 µM; in assay [18], 4.65 µM.
For the molecule `C/C=C\C(CC(=O)NCCC1CN(C(=O)OCc2ccccc2)c2ccccc21)CC(=O)OC` (stereo unspecified), the TGI in assay [1], in [3], in assay [4], in [7], in assay [8] and in assay [9] was more than 100 µM throughout. In addition, the TGI in assay [10], in [11], in [12], in assay [13], in assay [14] and in assay [20] was more than 100 µM in each case. Also, the TGI in [19], in [15], in assay [17] and in assay [18] was more than 100 µM throughout.
For `CC(C)(C)OC(=O)N1CC(C)(C)N2C(=O)C3(CCCO3)C12` (stereo unspecified), the TGI in assay [2], in assay [3], in assay [4], in [5], in assay [6] and in assay [7] was more than 100 µM in each case. For the same molecule, the TGI is more than 100 µM in assay [8]; more than 100 µM in [9]; more than 100 µM in assay [10]; 53.1 µM in [11]; 30.4 µM in [12]; more than 100 µM in assay [13]. Moreover, the TGI in assay [14], in assay [19], in [15], in assay [16] and in assay [17] was more than 100 µM each time.
For the molecule `CCOC(=O)/C(=C\c1cn(C(C)=O)c2ccccc12)P(C)(=O)OCC` (stereo unspecified), the TGI in assay [1] was more than 100 µM; in assay [3], more than 100 µM; in [4], more than 100 µM; in [5], more than 100 µM; in assay [7], more than 100 µM; in [8], 36.5 µM. The TGI in [9], in assay [10], in assay [11], in assay [12], in [13] and in assay [20] was more than 100 µM throughout. In addition, the total growth inhibition concentration (TGI) in assay [19], in assay [16] and in assay [17] was more than 100 µM in each case.
Consider `CCc1cccc(C(C)CC)c1NC(=O)C(=O)Cc1nc2ccccc2o1` (stereo unspecified), for which the TGI in [2], in [3], in [4], in assay [5], in [6] and in assay [7] was more than 50 µM throughout. In addition, the TGI in assay [8], in [9], in assay [10], in assay [11], in [12] and in assay [13] was more than 50 µM each time. For the same molecule, the TGI was more than 50 µM in [14]; more than 50 µM in assay [19]; more than 50 µM in assay [15]; more than 50 µM in [16]; more than 42 µM in assay [17].
